Data from patent US20110263539A1, “SHIP 1 MODULATOR COMPOUNDS” (THE UNIVERSITY OF BRITISH COLUMBIA, priority 2006, published 2011).

Assays:
SHIP enzyme = assay: In vitro SHIP enzyme assay (Assay 1); type: biochemical; details: 100 μM inositol-1,3,4,5-tetrakisphosphate, Malachite Green; further: key: a ‘+’ indicates a positive result for desired activity; a ‘−’ indicates a negative result for desired activity
Description: Assay 1) In vitro testing in a SHIP enzyme assay. Test compounds were dissolved in a suitable solvent (e.g. EtOH, DMSO and others) and diluted into aqueous buffer (20 mM Tris HCl, pH 7.5 and 10 mM MgCl2). SHIP enzyme assays were performed in 96-well microtitre plates with 10 ng of enzyme/well in a total volume of 25 μL of 20 mM Tris HCl, pH 7.5 and 10 mM MgCl2. SHIP enzyme was incubated with test extracts (provided in solvent) or vehicle for 15 min at 23° C. before the addition of 100 μM inositol-1,3,4,5-tetrakisphosphate (Echelon Biosciences Inc, Salt Lake City, Utah). After 20 min at 37° C. and the amount of inorganic phosphate released assessed by the addition of Malachite Green reagent and absorbance measurement at 650 nm.
For in vitro testing in the SHIP enzyme assay, AQX-016A and Compound 100 were dissolved in EtOH and diluted into aqueous buffer (20 mM Tris HCl, pH 7.5 and 10 mM MgCl2). The actual concentration of drug in solution was determined by optical density measurement at 280 nm (λmax for both compounds) after high speed centrifugation at 14 000×g for 30 min to remove precipitated drug. For testing on cells, compounds were formulated in the carrier cyclodextrin (Cyclodex Technologies, High Springs, Fla.) at 6 mM (2 mg/mL). For oral administration to animals, compounds were dissolved in 100% cremophore EL (Sigma-Aldrich Canada, Oakville, Ontario) at 150 mM (50 mg/mL) prior to dilution to 6 mM in phosphate buffer saline. However, while these compounds caged in cyclodextrin or formulated in cremophore EL micelles were very soluble in aqueous solution, they could not be used in the SHIP enzyme assays because of interference from both cyclodextrin and cremophore EL.
N-terminal His6 tagged SHIP enzyme was expressed in mammalian 293T cells by transient transfection with pME18S-His-SHIP plasmid and purified to >95% homogeneity by Ni-chelating bead chromatography (Qiagen, Mississauga, Ontario). Recombinant SHIP C2 domain (amino acid residues 725 to 863) was expressed in E. coli transformed with a pET28C expression vector constructed as described below. Recombinant protein purified from the cell lysates by Nichelating bead chromatography was >95% pure.
In vitro SHIP enzyme assay. SHIP enzyme assays were performed in 96-well microtitre plates with 10 ng of enzyme/well in a total volume of 25 μL of 20 mM Tris HCl, pH 7.5 and 10 Mm MgCl2. SHIP enzyme was incubated with test extracts (provided in DMSO) or vehicle for 15 min at 23° C. before the addition of 100 μM inositol-1,3,4,5-tetrakisphosphate (Echelon Biosciences Inc, Salt Lake City, Utah). After 20 min at 37° C. and the amount of inorganic phosphate released assessed by the addition of Malachite Green reagent and absorbance measurement at 650 nm. SHIP2 enzyme was purchased from Echelon Biosciences (Salt Lake City, Utah) and an equivalent amount of inositol phosphatase activity was used in the in vitro enzyme assay. Enzyme data are expressed as the mean of triplicates +/−SEM. Experiments were performed at least 3 times. (FIGS. 7A and 7B).

J774.1a macrophage cells [1] = assay: Macrophage TNF-α NO assay (Assay 3); type: cell-based; details: 10 μg/ml test compound, LPS, 24 hr, Griess reagent; further: key: a ‘+’ indicates a positive result for desired activity; a ‘−’ indicates a negative result for desired activity
Description: Assay 3) Macrophage TNF-α NO assay. J774.1a macrophage cells were treated with 10 μg/ml of test compound dissolved in solvent for 40 minutes prior to the addition of LPS. Culture supernatants were collected after 24 hr. for determination of NO concentration using the Griess reagent.

J774.1a macrophage cells [2] = assay: Macrophage TNF-α production (Assay 2); type: cell-based; details: 10 μg/mL test compound, 100 ng/mL LPS, ELISA; further: key: a ‘+’ indicates a positive result for desired activity; a ‘−’ indicates a negative result for desired activity
Description: Assay 2) Macrophage TNF-α production. J774.1a macrophage cells were treated with 10 μg/mL of test compound dissolved in solvent (e.g. cyclodextran) for 40 minutes prior to the addition of 100 ng/mL LPS. Culture supernatants were collected after 2 hr and 5 hr for TNF-α determination by ELISA.

MM cell lines = assay: In vitro Multiple Myeloma (MM) assay (Assay 7); type: cell-based; further: key: a ‘+’ indicates a positive result for desired activity; a ‘−’ indicates a negative result for desired activity
Description: Assay 7) In vitro Multiple Myeloma (MM) assay. The ability of SHIP activators to reduce tumor cell survival was assessed in MM cell lines treated with the test compound. The lines OPM1, OPM2, MM.1S and RPMI 8226 were plated at a density of 1×10^5 cells/mL in 200 μL of medium with various concentrations of the test compound, and viable cell numbers were determined on day 3 and day 5 by trypan blue exclusion. The lines RPMI 8226 and U266 were plated at a density of 1×10^6 cells/mL in 250 μL of medium with various concentrations of the test compound. At day 4, the medium of each culture was replaced by fresh medium containing the same concentration of test compound. At day 7, the viable cell number of each culture was determined by trypan blue exclusion.
MM cell lines were cultured in 96 well plates seeded with 3×10^4 cells suspended in 200 μL of medium along with various concentrations of test compound (and associated cyclodextran vehicle control), with LY294002 serving as a positive control in the experiments. After 24-48 hrs of culture, […] of [3H]-thymidine (GE Healthcare, Baie D'Urfe, Canada) being added for the final 8 hours. Cells were harvested and DNA associated radioactivity was measured via liquid scintillation counting using a Wallac Microbeta counter (Perkin-Elmer; Boston, Mass.).
The ability of SHIP activators to reduce tumor cell survival was assessed in multiple myeloma (MM) cell lines treated with Compound 100 or AQX-016A. The lines OPM1, OPM2, MM.1S and RPMI 8226 were plated at a density of 1×10^5 cells/mL in 200 μL of medium with various concentrations of Compound 100, and viable cell numbers were determined on day 3 and day 5 by trypan blue exclusion. The lines RPMI 8226 and U266 were plated at a density of 1×10^6 cells/mL in 250 μL of medium with various concentrations of AQX-016A. At day 4, the medium of each culture was replaced by fresh medium containing the same concentration of AQX-016A. At day 7, the viable cell number of each culture was determined by trypan blue exclusion. Experiments were performed in triplicate.
Proliferation (DNA synthesis) assays. Proliferation was measured by measuring incorporation of [^3H]-thymidine into cells. MM cell lines were cultured in 96 well plates seeded with 3×10^4 cells suspended in 200 μL, of medium along with various concentrations of Compound 100 or AQX-016A (and associated cyclodextran vehicle control), with LY294002 serving as a positive control in the indicated experiments. After 24-48 hrs of culture, 1 μCi of [^3H]-thymidine (GE Healthcare, Baie D'Urfe, Canada) being added for the final 8 hours. Plates were frozen, which also aided in cell lysis, to terminate the experiments. Cells were then harvested onto glass fibre filters using an automatic cell harvester (TomTech; Orange, Conn.) and DNA associated radioactivity was measured via liquid scintillation counting using a Wallac Microbeta counter (Perkin-Elmer; Boston, Mass.). Wells were set up in triplicate and data is expressed as mean+/−SEM.

Mast cells = assay: Stimulation of mast cells by FcεRI crosslinking (Assay 4); type: cell-based; details: anti-DNP IgE, DNP-HSA
Description: Assay 4) Stimulation of mast cells by FcåRI crosslinking. Mast cells were pre-loaded overnight in BMMC medium lacking IL-3 with 0.1 μg/ml anti-DNP IgE (SPE-7, Sigma, Oakville, Ont). For calcium flux measurements, cells were incubated with 2 μM fura 2-acetoxymethyl ester (Molecular Probes, Eugene, Oreg.) in Tyrode's buffer at 23° C. for 45 min. Cells were then washed and incubated in the presence of the test compound 30 min prior to stimulation with the indicated concentration of DNP-human serum albumin (DNP-HSA). Calcium influx was monitored by spectrofluorometry as described previously. For analysis of intracellular signaling, cells were pre-loaded with anti-DNP IgE as above, pre-treated with the test compound for 30 min at 37° C. and stimulated with 20 ng/ml DNP-HSA for 5 min. Total cell lysates were then prepared and analyzed for phospho-PKB, phospho-p38^MAPK, phospho-MAPK, Grb-2 (Cell Signalling, Mississauga, Ont) and SHIP^6 by immunoblot analysis.

SMILES	Assay Number 1: SHIP enzyme assay (SHIP enzyme)	Assay Number 3: Macrophage NO (J774.1a macrophage cells [1])	Assay Number 2: Macrophage TNF-α production (J774.1a macrophage cells [2])	Assay Number 7: In vitro Multiple Myeloma (MM) assay (MM cell lines)	Assay Number 4: Stimulation of mast cells by FcεRI crosslinking (Mast cells)
CC1(C)CCC[C@@]2(C)C1CC[C@@]1(C)c3c(C(=O)O)cc(O)c(O)c3C[C@@H]12 (stereo partly shown) [Desmethylpelorol, reference compound]	+	+	+		
Cc1cc(OC(=O)C(N)CCCNC(=N)N)cc2c1[C@]1(C)CCC3C(C)(C)CCC[C@]3(C)[C@H]1C2 (stereo partly shown) [Compound 105]		+	+		
COC(=O)c1cc(O)c(O)c2c1[C@@]1(C)CCC3C(C)(C)CCC[C@]3(C)[C@H]1C2 (stereo partly shown) [Compound 8-Epipelorol, 8-Epipelorol]	+				
Cc1cc(O)c2c(c1)C[C@@H]1[C@@]3(C)CCCC(C)(C)[C@@H]3CC[C@@]21C [Compound 122]		+	−	+	
Cc1cc(O)cc2c1[C@]1(C)CCC3C(C)(C)CCC[C@]3(C)[C@@H]1C2 (stereo partly shown) [Compound 124]		+	+	+	+
CC(=O)Oc1cc(C)c2c(c1)C[C@H]1[C@@]2(C)CCC2C(C)(C)CCC[C@@]21C (stereo partly shown) [Compound 102]		+	+		
Cc1cc2c(cc1O)C[C@@H]1[C@@]3(C)CCCC(C)(C)[C@@H]3CC[C@@]21C [Compound 101]		+	+	+	
CC1(C)CCC[C@]2(C)[C@H]3Cc4cc(O)ccc4[C@]3(C)CC[C@@H]12 [Compound 121]		+	+	+	
COc1cc(C)c2c(c1O)C[C@@H]1[C@@]3(C)CCCC(C)(C)[C@@H]3CC[C@@]21C [Compound 129]		+	−		
CC1(C)CCC[C@]2(C)[C@H]3Cc4cc(O)cc(O)c4[C@]3(C)CC[C@@H]12 [Compound 115]				+	
Cc1cc(OC(=O)C(CC(=O)O)NC(=O)CCC(=O)O)cc2c1[C@]1(C)CCC3C(C)(C)CCC[C@]3(C)[C@H]1C2 (stereo partly shown) [Compound 114]		+	+		
COc1ccc2c(c1O)C[C@@H]1[C@@]3(C)CCCC(C)(C)[C@@H]3CC[C@@]21C [Compound 118]		+	−	+	
COC(=O)c1cc(O)c(O)c2c1[C@]1(C)CCC3C(C)(C)CCC[C@]3(C)[C@@H]1C2 (stereo partly shown) [Compound 9-Epipelorol, 9-Epipelorol]	+				
COc1cc(O)cc2c1[C@]1(C)CC[C@H]3C(C)(C)CCC[C@]3(C)[C@H]1C2 [Compound 117]		+	+	+	
COC(=O)c1cc(O)c(O)c2c1[C@]1(C)CCC3C(C)(C)CCC[C@]3(C)[C@H]1C2 (stereo partly shown) [Pelorol, pelorol]	+				
Cc1cc(OC(=O)C(N)Cc2cnc[nH]2)cc2c1[C@]1(C)CCC3C(C)(C)CCC[C@]3(C)[C@H]1C2 (stereo partly shown) [Compound 123]		+	+		
CCc1cc(O)c(O)c2c1[C@]1(C)CCC3C(C)(C)CCC[C@]3(C)[C@H]1C2 (stereo partly shown) [Compound 18A, reference compound]	+	+	+		
Cc1cc(OP(=O)(O)O)cc2c1[C@]1(C)CCC3C(C)(C)CCC[C@]3(C)[C@H]1C2 (stereo partly shown) [Compound 109]		+	−	+	
Cc1cc(O)c(O)c2c1[C@@]1(C)CCC3C(C)(C)CCC[C@]3(C)[C@H]1C2 (stereo partly drawn) [8 Epi 16A]	+				
